As to `CS(=O)(=O)c1ccc(Oc2cc(OCc3ccccc3)c3[nH]c(-c4ncc(CO)s4)cc3c2)cc1` [Example 23, (2-{7-(Benzyloxy)-5-[4-(methylsulfonyl)phenoxy]-1H-indol-2-yl}-1,3-thiazol-5-yl)methanol], the melting point – broadly, the temperature of the solid-liquid transition – is 125 to 126 °C.

`CCOc1cc(Oc2ccc(S(C)(=O)=O)nc2)cc2cc(C3=NCC(CCO)S3)[nH]c12` (stereo not drawn) [Example 95, 2-[2-(7-Ethoxy-5-{[6-(methylsulfonyl)pyridin-3-yl]oxy}-1H-indol-2-yl)-4,5-dihydro-1,3-thiazol-5-yl]ethanol] registered a melting point of 147 to 148 °C.

Consider `COc1cc(Oc2ccc(S(C)(=O)=O)nc2)cc2cc(C3=NCC(CC(=O)NCC(C)(C)O)S3)[nH]c12` (stereo not drawn) [Example 73, N-(2-Hydroxy-2-methylpropyl)-2-[2-(7-methoxy-5-{[6-(methylsulfonyl)pyridin-3-yl]oxy}-1H-indol-2-yl)-4,5-dihydro-1,3-thiazol-5-yl]acetamide], for which the melting point lay within 200 to 201 °C.

Take `COCc1ccc(Oc2cc(OC(C)C)c3[nH]c(C4=NCC(CC(=O)NC5CC5)S4)cc3c2)cn1` (stereo not drawn) [Example 72, N-Cyclopropyl-2-{2-[5-{[6-(methoxymethyl)pyridin-3-yl]oxy}-7-(1-methylethoxy)-1H-indol-2-yl]-4,5-dihydro-1,3-thiazol-5-yl}acetamide]: the melting point lay in the range of 100 to 101 °C.

In the case of `COc1cc(Oc2ccc(S(C)(=O)=O)nc2)cc2cc(C3=NCC(CC(=O)NC4CC4)S3)[nH]c12` (stereo not drawn) [Example 76, N-Cyclopropyl-2-[2-(7-methoxy-5-{[6-(methylsulfonyl)pyridin-3-yl]oxy}-1H-indol-2-yl)-4,5-dihydro-1,3-thiazol-5-yl]acetamide], the melting point fell in the range of 248 to 249 °C.

Turning to `CC(C)Oc1cc(Oc2ccc(S(C)(=O)=O)cn2)cc2cc(C3=NCC(CC(N)=O)S3)[nH]c12` (stereo not drawn) [Example 67, 2-{2-[7-(1-Methylethoxy)-5-{[5-(methylsulfonyl)pyridin-2-yl]oxy}-1H-indol-2-yl]-4,5-dihydro-1,3-thiazol-5-yl}acetamide], the melting point is 212 to 213 °C.

For `CNC(=O)CC1CN=C(c2cc3cc(Oc4ccc(COC)nc4)cc(OC)c3[nH]2)S1` (stereo not drawn) [Example 50, 2-[2-(7-Methoxy-5-{[6-(methoxymethyl)pyridin-3-yl]oxy}-1H-indol-2-yl)-4,5-dihydro-1,3-thiazol-5-yl]-N-methylacetamide], the melting point fell in the range of 102 to 104 °C.

On to `COCCOc1c(F)c(Oc2ccc(S(C)(=O)=O)nc2)cc2cc(C3=NCC(CCO)S3)[nH]c12` (stereo not drawn) [Example 90, 2-{2-[6-Fluoro-7-(2-methoxyethoxy)-5-{[6-(methylsulfonyl)pyridin-3-yl]oxy}-1H-indol-2-yl]-4,5-dihydro-1,3-thiazol-5-yl}ethanol], for which the melting point lay within 160 to 161 °C.

`CC(C)Oc1cc(Oc2ccc(S(C)(=O)=O)cn2)cc2cc(C3=NCC(CC(C)(C)O)S3)[nH]c12` (stereo not drawn) [Example 63, 2-Methyl-1-{2-[7-(1-methylethoxy)-5-{[5-(methylsulfonyl)pyridin-2-yl]oxy}-1H-indol-2-yl]-4,5-dihydro-1,3-thiazol-5-yl}propan-2-ol]: the melting point lay within 151 to 153 °C.

`COCC(COC)Oc1cc(Oc2ccc(S(C)(=O)=O)nc2)cc2cc(C3=NCC(CC(N)=O)S3)[nH]c12` (stereo not drawn) [Example 35, 2-[2-(7-[2-Methoxy-1-(methoxymethyl)ethoxy]-5-{[6-(methylsulfonyl)pyridin-3-yl]oxy}-1H-indol-2-yl)-4,5-dihydro-1,3-thiazol-5-yl]acetamide] registered a melting point of 172 to 173 °C.

Regarding `CNC(=O)CC1CN=C(c2cc3cc(Oc4ccc(S(C)(=O)=O)nc4)cc(OC(COC)COC)c3[nH]2)S1` (stereo not drawn) [Example 36, 2-[2-(7-[2-Methoxy-1-(methoxymethyl)ethoxy]-5-{[6-(methylsulfonyl)pyridin-3-yl]oxy}-1H-indol-2-yl)-4,5-dihydro-1,3-thiazol-5-yl]-N-methylacetamide], the melting point is 149 to 151 °C.

In the case of `CNC(=O)CC1CN=C(c2cc3cc(Oc4ccc(S(C)(=O)=O)cc4)cc(OC)c3[nH]2)S1` (stereo not drawn) [Example 103, 2-(2-{7-Methoxy-5-[4-(methylsulfonyl)phenoxy]-1H-indol-2-yl}-4,5-dihydro-1,3-thiazol-5-yl)-N-methylacetamide], the melting point lay in the range of 125 to 126 °C.

In turn, `CCNC(=O)CC1CN=C(c2cc3cc(Oc4ccc(S(C)(=O)=O)nc4)cc(OC)c3[nH]2)S1` (stereo not drawn) [Example 77, N-Ethyl-2-[2-(7-methoxy-5-{[6-(methylsulfonyl)pyridin-3-yl]oxy}-1H-indol-2-yl)-4,5-dihydro-1,3-thiazol-5-yl]acetamide] returned a melting point of 236 to 237 °C.

As for `CS(=O)(=O)c1ccc(Oc2cc(OCc3ccccc3)c3[nH]c(C4=NCC(CCO)S4)cc3c2)cc1` (stereo not drawn) [Example 2, 2-(2-{7-(Benzyloxy)-5-[4-(methylsulfonyl)phenoxy]-1H-indol-2-yl}-4,5-dihydro-1,3-thiazol-5-yl)ethanol], the melting point lay in the range of 97 to 98 °C.

`CNC(=O)CC1CN=C(c2cc3cc(Oc4ccc(S(C)(=O)=O)nc4)cc(OC)c3[nH]2)S1` (single isomer, unassigned) [Example 32, 2-[2-(7-Methoxy-5-{[6-(methylsulfonyl)pyridin-3-yl]oxy}-1H-indol-2-yl)-4,5-dihydro-1,3-thiazol-5-yl]-N-methylacetamide] had a melting point of 195 to 197 °C.

Consider `CS(=O)(=O)c1ccc(Oc2cc(OCc3ccccc3)c3[nH]c(C4=NCC(CC(N)=O)S4)cc3c2)cc1` (stereo not drawn) [Example 4, 2-(2-{7-(Benzyloxy)-5-[4-(methylsulfonyl)phenoxy]-1H-indol-2-yl}-4,5-dihydro-1,3-thiazol-5-yl)acetamide], for which the melting point was in the range of 134 to 135 °C.

In turn, `COCc1ccc(Oc2cc(OC)c3[nH]c(C4=NCC(CC(N)=O)S4)cc3c2)cn1` (stereo not drawn) [Example 49, 2-[2-(7-Methoxy-5-{[6-(methoxymethyl)pyridin-3-yl]oxy}-1H-indol-2-yl)-4,5-dihydro-1,3-thiazol-5-yl]acetamide] had a melting point of 135 to 136 °C.

As to `CC(C)Oc1cc(Oc2ccc(S(C)(=O)=O)cn2)cc2cc(C3=NCC(CCO)S3)[nH]c12` (stereo not drawn) [Example 62], the melting point lay in the range of 172 to 173 °C.

Take `CCNC(=O)CC1CN=C(c2cc3cc(Oc4ccc(COC)nc4)cc(OC)c3[nH]2)S1` (stereo not drawn) [Example 51, N-Ethyl-2-[2-(7-methoxy-5-{[6-(methoxymethyl)pyridin-3-yl]oxy}-1H-indol-2-yl)-4,5-dihydro-1,3-thiazol-5-yl]acetamide]: the melting point lay in the range of 130 to 132 °C.

The molecule `CCOC(=O)c1nnc(-c2cc3cc(Oc4ccc(S(C)(=O)=O)cc4)cc(OCc4ccccc4)c3[nH]2)s1` [Example 20, Ethyl 5-{7-(benzyloxy)-5-[4-(methylsulfonyl)phenoxy]-1H-indol-2-yl}-1,3,4-thiadiazole-2-carboxylate] gave a melting point of 194 to 195 °C.

Molecule `COc1cc(Oc2ccc(S(C)(=O)=O)cc2)cc2cc(C3=NCC(CC(N)=O)S3)[nH]c12` (stereo not drawn) [Example 104, 2-(2-{7-Methoxy-5-[4-(methylsulfonyl)phenoxy]-1H-indol-2-yl}-4,5-dihydro-1,3-thiazol-5-yl)acetamide] gave a melting point of 169 to 170 °C.

As for `CNC(=O)CC1CN=C(c2cc3cc(Oc4ccc(S(C)(=O)=O)nc4)c(F)c(OCCOC)c3[nH]2)S1` (stereo not drawn) [Example 92, 2-{2-[6-Fluoro-7-(2-methoxyethoxy)-5-{[6-(methylsulfonyl)pyridin-3-yl]oxy}-1H-indol-2-yl]-4,5-dihydro-1,3-thiazol-5-yl}-N-methylacetamide], the melting point was 151 to 152 °C.

For the molecule `CNC(=O)CC1CN=C(c2cc3cc(Oc4ccc(S(C)(=O)=O)cn4)cc(OC)c3[nH]2)S1` (stereo not drawn) [Example 42, 2-[2-(7-Methoxy-5-{[5-(methylsulfonyl)pyridin-2-yl]oxy}-1H-indol-2-yl)-4,5-dihydro-1,3-thiazol-5-yl]-N-methylacetamide], the melting point fell in the range of 207 to 209 °C.

`CS(=O)(=O)c1ccc(Oc2cc(OCc3cccc(Cl)n3)c3[nH]c(C4=NCC(CC(N)=O)S4)cc3c2)cc1` (stereo not drawn) [Example 8, 2-(2-{7-[(6-Chloropyridin-2-yl)methoxy]-5-[4-(methylsulfonyl)phenoxy]-1H-indol-2-yl}-4,5-dihydro-1,3-thiazol-5-yl)acetamide] had a melting point of 147 to 148 °C.

With `COCCOc1c(F)c(Oc2ccc(S(C)(=O)=O)nc2)cc2cc(C3=NCC(CC(N)=O)S3)[nH]c12` (stereo not drawn) [Example 93, 2-{2-[6-Fluoro-7-(2-methoxyethoxy)-5-{[6-(methylsulfonyl)pyridin-3-yl]oxy}-1H-indol-2-yl]-4,5-dihydro-1,3-thiazol-5-yl}acetamide], the melting point lay in the range of 143 to 144 °C.

Consider `CCOc1cc(Oc2ccc(S(C)(=O)=O)nc2)cc2cc(C3=NCC(CC(N)=O)S3)[nH]c12` (stereo not drawn) [Example 100, 2-[2-(7-Ethoxy-5-{[6-(methylsulfonyl)pyridin-3-yl]oxy}-1H-indol-2-yl)-4,5-dihydro-1,3-thiazol-5-yl]acetamide], for which the melting point lay in the range of 195 to 196 °C.

Molecule `COCC(C)Oc1cc(Oc2ccc(S(C)(=O)=O)nc2)cc2cc(C3=NCC(CC(N)=O)S3)[nH]c12` (stereo not drawn) [Example 86, 2-{2-[7-(2-Methoxy-1-methylethoxy)-5-{[6-(methylsulfonyl)pyridin-3-yl]oxy}-1H-indol-2-yl]-4,5-dihydro-1,3-thiazol-5-yl}acetamide] came in with a melting point of 131 to 132 °C.

`CNC(=O)CC1CN=C(c2cc3cc(Oc4ccc(S(C)(=O)=O)cn4)cc(OC(COC)COC)c3[nH]2)S1` (stereo not drawn) [Example 46, 2-[2-(7-[2-Methoxy-1-(methoxymethyl)ethoxy]-5-{[5-(methylsulfonyl)pyridin-2-yl]oxy}-1H-indol-2-yl)-4,5-dihydro-1,3-thiazol-5-yl]-N-methylacetamide] gave a melting point of 123 to 125 °C.

Regarding `COCC(C)Oc1cc(Oc2ccc(S(C)(=O)=O)cc2)cc2cc(C3=NCC(C(OC)OC)S3)[nH]c12` (stereo not drawn) [Example 88, 2-[5-(Dimethoxymethyl)-4,5-dihydro-1,3-thiazol-2-yl]-7-(2-methoxy-1-methylethoxy)-5-[4-(methylsulfonyl)phenoxy]-1H-indole], the melting point lay in the range of 109 to 112 °C.

For the molecule `COCC(C)Oc1cc(Oc2ccc(S(C)(=O)=O)cc2)cc2cc(C3=NCC(CC(C)(C)O)S3)[nH]c12` (stereo not drawn) [Example 60, 1-(2-{7-(2-Methoxy-1-methylethoxy)-5-[4-(methylsulfonyl)phenoxy]-1H-indol-2-yl}-4,5-dihydro-1,3-thiazol-5-yl)-2-methylpropan-2-ol], the melting point lay within 112 to 113 °C.

For the origin of these results see patent US8673942B2, “Fused ring compounds and use thereof” (Takeda Pharmaceutical Company Limited, priority 2008, dated 2014).
